Test results as given in a compilation of properties of binary mixtures (doi:10.1016/j.molliq.2020.112481).

Test: xn = mol fraction of the nth substance listed
Details: 100 kPa

CCCC[n+]1ccn(C)c1.O=S(=O)([O-])C(F)(F)F + OCCO
Details	speed of sound [m/s]	viscosity [mPa·s]
298.15 K, x1 = 0.1936	1517.5	17.41
298.15 K, x1 = 0.2985	1478.8	20.69
298.15 K, x1 = 0.3912	1456.1	23.59
298.15 K, x1 = 0.4999	1437.2	26.6
298.15 K, x1 = 0.6055	1423.5	29.8
298.15 K, x1 = 0.7966	1410.5	42
298.15 K, x1 = 0.9035	1404.8	57.9
298.15 K, x1 = 1	1393.2	82.4
303.15 K, x1 = 0.1936	1505.9	14.07
303.15 K, x1 = 0.2985	1467.3	16.81
303.15 K, x1 = 0.3912	1444.6	19.28
303.15 K, x1 = 0.6055	1412.2	24.5
303.15 K, x1 = 0.7966	1399.2	34.3
303.15 K, x1 = 0.9035	1393.6	47
303.15 K, x1 = 1	1382.8	66.7
308.15 K, x1 = 0.0926	1551.3	10.51
308.15 K, x1 = 0.1936	1494.4	11.7
308.15 K, x1 = 0.3912	1433.2	15.95
308.15 K, x1 = 0.6055	1400.9	20.86
308.15 K, x1 = 0.9035	1382.5	38.6
308.15 K, x1 = 1	1371.7	52.9
313.15 K, x1 = 0.0926	1539.6	8.82
313.15 K, x1 = 0.1936	1482.8	9.82
313.15 K, x1 = 0.3912	1421.9	13.48
313.15 K, x1 = 0.6055	1389.8	17.79
313.15 K, x1 = 0.7966	1376.9	24.6
313.15 K, x1 = 0.9035	1371.5	32.3
313.15 K, x1 = 1	1360.7	43.7
318.15 K, x1 = 0.1936	1471.4	8.3
318.15 K, x1 = 0.2985	1433.2	9.91
318.15 K, x1 = 0.3912	1410.7	11.51
318.15 K, x1 = 0.6055	1378.7	15.37
318.15 K, x1 = 0.6922	1371.2	17.42
318.15 K, x1 = 0.7966	1365.9	21.09
318.15 K, x1 = 0.9035	1360.5	27.3
318.15 K, x1 = 1	1349.9	36.3
323.15 K, x1 = 0.0926	1516.4	6.2
323.15 K, x1 = 0.2985	1421.9	8.4
323.15 K, x1 = 0.4999	1381	11.65
323.15 K, x1 = 0.6055	1367.7	13.42
323.15 K, x1 = 0.6922	1360.3	15.17
323.15 K, x1 = 0.9035	1349.7	23.24
323.15 K, x1 = 1	1338.8	30.6

OCCO + CCCC[n+]1ccn(C)c1.O=S(=O)([O-])C(F)(F)F
x2 = 0
Details	speed of sound [m/s]	viscosity [mPa·s]
298.15 K	1655	16.39
308.15 K	1631.5	11.16
313.15 K	1619.7	9.34
318.15 K	1607.9	7.91
323.15 K	1596.1	6.75
